± gives the standard deviation of the averaged measurements.
Legend:
PLX-4720 = compound: CCCS(=O)(=O)Nc1ccc(F)c(C(=O)c2c[nH]c3ncc(Cl)cc23)c1F [PLX-4720]; assay: surviving fraction relative to DMSO-only wells; higher = less growth inhibition; conditions: exposure time: 5 days
Procedure, shortened: (§1)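 After seeding at 250–500 cells per well in 384-well plates and a 24-hour wait, log-phase tumour cell lines were exposed without interruption for five days to inhibitors at 0.5, 1, 5, 10, 50, 100, 500 and 1000 nM. CellTiter-Glo luminescence was recorded after 10 minutes at room temperature. Viability is reported as surviving fraction, the luminescence normalised to the median of DMSO-only wells.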

AZD4547 = compound: COc1cc(CCc2cc(NC(=O)c3ccc(N4CC(C)NC(C)C4)cc3)n[nH]2)cc(OC)c1 [AZD4547]; assay: as above; conditions: exposure time: 5 days
Procedure, shortened: as §1

Test System	surviving fraction (PLX-4720; 0.5 nM)	surviving fraction (PLX-4720; 1 nM)	surviving fraction (PLX-4720; 5 nM)	surviving fraction (PLX-4720; 10 nM)	surviving fraction (PLX-4720; 50 nM)	surviving fraction (PLX-4720; 100 nM)	surviving fraction (PLX-4720; 500 nM)	surviving fraction (PLX-4720; 1000 nM)	surviving fraction (AZD4547; 0.5 nM)	surviving fraction (AZD4547; 1 nM)	surviving fraction (AZD4547; 5 nM)	surviving fraction (AZD4547; 10 nM)	surviving fraction (AZD4547; 50 nM)	surviving fraction (AZD4547; 100 nM)	surviving fraction (AZD4547; 500 nM)	surviving fraction (AZD4547; 1000 nM)
SYO1 SYNOVIAL	0.336 ± 0.15	0.772 ± 0.089	0.658 ± 0.089	0.809 ± 0.043	0.408 ± 0.14	0.942 ± 0.017	0.865 ± 0.11	0.988 ± 0.061	0.897 ± 0.051	0.942 ± 0.022	0.744 ± 0.037	0.737 ± 0.021	0.664 ± 0.012	0.686 ± 0.02	0.637 ± 0.041	0.556 ± 0.046
BT20 BREAST	0.783 ± 0.2	0.849 ± 0.16	0.774 ± 0.065	0.803 ± 0.056	1.07 ± 0.1	1.03 ± 0.19	1.05 ± 0.087	1.12 ± 0.067	1.12 ± 0.13	1.08 ± 0.071	1.11 ± 0.059	1.13 ± 0.061	1.05 ± 0.072	1.04 ± 0.072	1.15 ± 0.043	0.968 ± 0.15
SG27 HEADNECK	0.659 ± 0.094	0.877 ± 0.1	0.962 ± 0.077	0.965 ± 0.12	0.788 ± 0.12	0.942 ± 0.11	0.928 ± 0.1	0.955 ± 0.1	0.937 ± 0.05	0.959 ± 0.078	0.864 ± 0.027	0.82 ± 0.024	0.68 ± 0.069	0.791 ± 0.032	0.849 ± 0.027	0.943 ± 0.098
22RV1 PROSTATE	1 ± 0.011	0.966 ± 0.076	0.971 ± 0.032	0.958 ± 0.036	0.936 ± 0.04	0.929 ± 0.053	0.825 ± 0.095	0.872 ± 0.049	1 ± 0.06	1.01 ± 0.059	1.02 ± 0.044	1.07 ± 0.056	0.998 ± 0.048	1.03 ± 0.053	1.1 ± 0.084	1.08 ± 0.082
JIMT1 BREAST	0.857 ± 0.025	0.862 ± 0.042	0.894 ± 0.05	0.887 ± 0.046	0.966 ± 0.067	1.01 ± 0.06	0.947 ± 0.066	0.976 ± 0.037	0.99 ± 0.016	1.03 ± 0.04	1.018 ± 0.0059	1.02 ± 0.0097	1.032 ± 0.0075	1.07 ± 0.032	1.05 ± 0.02	1.06 ± 0.03
SG28 HEADNECK	0.279 ± 0.033	0.796 ± 0.12	0.718 ± 0.057	0.849 ± 0.082	0.513 ± 0.014	0.964 ± 0.027	0.818 ± 0.11	0.959 ± 0.036	0.977 ± 0.13	1.14 ± 0.023	1.07 ± 0.093	0.982 ± 0.026	0.959 ± 0.048	1.04 ± 0.087	1.01 ± 0.077	0.706 ± 0.057
MDAMB157 BREAST	0.848 ± 0.032	0.962 ± 0.069	0.958 ± 0.079	1 ± 0.093	0.914 ± 0.094	1.01 ± 0.027	0.868 ± 0.082	0.86 ± 0.039	0.981 ± 0.036	0.967 ± 0.12	0.932 ± 0.069	0.768 ± 0.035	0.642 ± 0.13	0.537 ± 0.048	0.562 ± 0.1	0.374 ± 0.039
HMT3552 BREAST	1.04	0.993	1.01	0.978	1.23	1.17	1.11	1.1	1.06	1.09	1.01	0.895	1.03	1.04	0.852	0.888
T47D BREAST	0.81 ± 0.036	0.921 ± 0.0064	0.919 ± 0.043	0.953 ± 0.025	0.914 ± 0.015	1.04 ± 0.06	0.994 ± 0.021	1.01 ± 0.043	1.02 ± 0.044	1.05 ± 0.013	1.06 ± 0.043	1.04 ± 0.034	1.09 ± 0.018	1.12 ± 0.025	1.18 ± 0.03	1.2 ± 0.073
SCC47 HEADNECK	0.871 ± 0.025	0.853 ± 0.017	0.953 ± 0.041	0.884 ± 0.016	0.981 ± 0.03	1.09 ± 0.03	0.999 ± 0.14	1.01 ± 0.051	0.967 ± 0.14	1.02 ± 0.066	1.02 ± 0.1	1.13 ± 0.069	1.08 ± 0.037	1.09 ± 0.091	1.03 ± 0.078	0.961 ± 0.074
